Earlier results in patent US7304085B2, “Nitrogen-containing heteroaryl derivatives” (Genelabs Technologies, Inc., priority 2003, dated 2007).

What was measured:
HCV = conditions: treatment of HCV, long term efficacy

Compound | patients with significant hemolysis (currently recommended doses) | teratogenicity / embryotoxicity (in vivo) | response rate (HCV)
NC(=O)c1ncn([C@@H]2O[C@H](CO)[C@@H](O)[C@H]2O)n1 [Ribavirin, 1-β-D-ribofuranosyl-1H-1,2,4-triazole-3-carboxamide] | 10-20% | teratogenic and embryotoxic | –
interferon | – | – | about 25%
